Experimental data as given in EPA's ToxValDB 9.5 (doi:10.2903/j.efsa.2006.55r).
In brackets after ≈: the same amount, converted by molar mass.

Experiments:
Anas platyrhynchos = details: for LC50: short-term, oral, feed, mortality
Colinus virginianus = details: acute, oral, mortality
Daphnia magna = details: chronic/long-term; duration: 21 days; reproduction
Lepomis macrochirus = details: acute; duration: 96 hours; mortality
Tagia sp. = details: for LC50: acute, mortality
Apis mellifera = details: acute, duration: 48 hours, mortality
Plant = details: not reported; no effects
Rattus norvegicus = details: for NOAEL: reproduction developmental
Aphidius rhopalosiphi = experiment: LR50; higher = less toxic; details: not reported; mortality
Orius insidiosus = experiment: LR50; higher = less toxic; details: not reported; mortality

| Structure (SMILES) | LC50 (Anas platyrhynchos) | LD50 (Colinus virginianus) [mg/kg-day] | NOEC (Daphnia magna) [mg/L] | LC50 (Lepomis macrochirus) [µg/mL] | LC50 (Tagia sp.; duration: 14 days) [mg/kg] | NOEC (Anas platyrhynchos; reproductive) [mg/kg] | LD50 (Apis mellifera; dermal) [µg/piece] | LD50 (Apis mellifera; oral, unspecified) [µg/piece] | LC50 (Colinus virginianus; diet) [mg/kg] | LEL (Plant) [g/ha] | LOAEL (Rattus norvegicus; acute, oral, gavage, neurology) [mg/kg-day] | LD50 (Rattus norvegicus; acute, oral, mortality) [mg/kg-day] | NOAEL (Rattus norvegicus; body weight) [mg/kg-day] | NOAEL (Rattus norvegicus; oral, diet, mortality) [mg/kg-day] | NOAEL (Rattus norvegicus; reproduction) [mg/kg-day] | LC50 (Tagia sp.) [mg/kg] | NOEC (Tagia sp.; chronic/long-term) [mg/kg] | LR50 (Aphidius rhopalosiphi) [g/ha] | LR50 (Orius insidiosus) [g/ha] |
| --- | --- | --- | --- | --- | --- | --- | --- | --- | --- | --- | --- | --- | --- | --- | --- | --- | --- | --- | --- |
| CNC(=O)ON=C(C)SC [Methomyl] | 658 mg/kg-day | 24.2 | 0.0016 | 0.62 (≈ 3.82 µM) | 19 |  |  |  |  |  |  |  |  |  |  |  |  |  |  |
| CSC(C)=NOC(=O)N(C)SN(C)C(=O)ON=C(C)SC [Thiodicarb] | > 5620 mg/kg | 2020 |  | 1.4 (≈ 3.95 µM) |  | 500 | 3.1 | 0.153 | > 5620 | 950 | < 5 | 50 | 1 | 7 | 84 | 38.5 | 2 | 0.4 | 25.4 |
